From paper PMC8245773, “Brevibacillin 2V, a Novel Antimicrobial Lipopeptide With an Exceptionally Low Hemolytic Activity” (Frontiers in Microbiology, 2021)
Where two headings read alike, the source gives them in different places. *1 amine or outer side, *2 acyl side, *3 side chain or, on linkers, in order; H or OH if unused. Where a SMILES comes first, the peptide text is derived from it. [ ]: non-standard residue; d: D form. The star is where a group is joined. X2 = CC=C(N[*:1])C(=O)[*:2]; dOrn = NCCC[C@@H](N)C(=O)O; Valol = CC(C)[C@@H](CO)N*; X1 = CCC(C)C(O)C(=O)*

Columns and labels:
human erythrocytes = test: Hemolytic activity
Procedure: This assay was performed as per the method described in previous studies ([Ling et al., 2015]; [Li et al., 2018]). Briefly, erythrocytes were isolated from a healthy human volunteer donor (ordered from Sanquin, Netherlands^1) and washed with phosphate-buffered saline (PBS) three times. After that, peptides were added at final concentrations of 128, 64, 32, 16, 8, 4, 2, 1, and 0 mg/L in PBS containing 2% (v/v) erythrocytes. The cells were incubated at 37°C for 1 h and centrifuged for 5 min at 8,000 g. The supernatant was transferred to a 96-well plate, and the absorbance was measured at a wavelength of 450 nm with a Thermo Scientific Varioskan^TM LUX multimode microplate reader. The absorbance relative to the positive control, which was treated with 10% Triton X-100, was defined as the percentage of hemolysis. The 50% human blood cell hemolysis concentration (HC50) of peptides was calculated as described in previous studies ([Reed and Muench, 1938]).
(§1) GraphPad Prism 7.0 was used to fit the data of hemolytic assay and cytotoxicity assay in Figure 3. The experiments were conducted in triplicate, and data are presented as the mean value of triplicate experiments. Data Explorer Software was used to analyze the MALDI-TOF data; Thermo Scientific Xcalibur software was used to analyze the LC–MS/MS data. The statistical significance of the data was assessed using Duncan’s multiple-range test with the software SPSS Statistics 19.0. P-values less than 0.05 were considered to be statistically significant.

HepG2 cells = details: for HepG2 CC50: 24 h
Procedure: The cytotoxicity of brevibacillins was evaluated on HepG2 cells by using the XTT (Cell Proliferation Kit XTT, AppliChem) assay ([Roehm et al., 1991]). HepG2 cells [in Dulbecco’s modified Eagle’s medium (DMEM) supplemented with 10% fetal bovine serum] were seeded into 96-well plates and incubated at 37°C with 5% CO2. After 24 h, the medium was replaced with a fresh medium (DMEM with 2% FBS, 100 μl per well) containing different concentrations of brevibacillins ([Zhao et al., 2017]). After 24 h of incubation, the XTT reagent was added to the cultures according to the manufacturer’s instructions, and the plates were incubated at 37°C for 2 h with 5% CO2. Subsequently, the absorbance values were measured by using a Varioskan^TM LUX multimode microplate reader (Thermo Fisher Scientific) at 485 nm (reference, 690 nm). The 50% cell toxicity (CC50) of peptides was calculated as described in a previous study ([Reed and Muench, 1938]).
as §1

[1] = cited from earlier work
Procedure: For cytotoxicity assays, HepG2 cells were incubated in the presence of brevibacillin concentrations ranging from 2 to 64 mg/L. After 24 h of incubation, cell viability was determined using an XTT kit.

Compound	hemolytic activity at 128 mg/L (human erythrocytes)	HC50 (concentration that causes 50% hemolysis of human red blood cells) (human erythrocytes; 1 h)	CC50 (HepG2) relative to MIC values against bacterial pathogens (HepG2 cells)	cytotoxicity to HepG2 cells at 16 mg/L (HepG2 cells)	HepG2 CC50 (HepG2 cells)	CC50 [1]	hemolytic activity at 128 mg/L (human erythrocytes; 128 mg/L, human erythrocytes, 37°C, 1 h)	cytotoxicity to HepG2 cells at 32 mg/L (HepG2 cells)	hemolytic activity at 64 mg/L (human erythrocytes)
CC=C(NC(=O)C(O)C(C)CC)C(=O)N[C@@H](CC(C)C)C(=O)N[C@H](CCCN)C(=O)N[C@H](C(=O)N[C@H](C(=O)N[C@H](C(=O)N[C@H](CCCCN)C(=O)N[C@H](C(=O)N[C@H](C(=O)N[C@@H](CCCCN)C(=O)N[C@H](Cc1ccc(O)cc1)C(=O)N[C@@H](CC(C)C)C(=O)N[C@H](CO)C(C)C)C(C)C)C(C)C)C(C)C)C(C)C)[C@@H](C)CC (stereo partly drawn) [brevibacillin V] (X1-[X2]L[dOrn]IVV[dK]VVK[dY]L-Valol)	completely lysed	73.1 ± 1.4 mg/L	2.5- to fivefold	all of the HepG2 cells were killed	9.89 ± 0.67 µg/mL	–	–	–	–
bogorol	–	–	–	–	–	below 8 mg/L	–	–	–
CC=C(NC(=O)C(O)C(C)CC)C(=O)N[C@@H](CC(C)C)C(=O)N[C@H](CCCN)C(=O)N[C@H](C(=O)N[C@H](C(=O)N[C@H](C(=O)N[C@H](CCCCN)C(=O)N[C@H](C(=O)N[C@H](C(=O)N[C@@H](CCCCN)C(=O)N[C@H](Cc1ccc(O)cc1)C(=O)N[C@@H](CC(C)C)C(=O)N[C@H](CO)C(C)C)C(C)C)C(C)C)C(C)C)C(C)C)C(C)C (stereo partly drawn) [brevibacillin 2V] (X1-[X2]L[dOrn]VVV[dK]VVK[dY]L-Valol)	–	> 128 mg/L	23 fold	–	45.49 ± 0.24 µg/mL	–	No hemolytic activity	no cytotoxicity	–
CC=C(NC(=O)C(O)C(C)CC)C(=O)N[C@@H](CC(C)C)C(=O)N[C@H](CCCN)C(=O)N[C@H](C(=O)N[C@H](C(=O)N[C@H](C(=O)N[C@H](CCCCN)C(=O)N[C@H](C(=O)N[C@H](C(=O)N[C@@H](CCCCN)C(=O)N[C@H](Cc1ccc(O)cc1)C(=O)N[C@@H](CC(C)C)C(=O)N[C@H](CO)C(C)C)C(C)C)C(C)C)C(C)C)[C@@H](C)CC)[C@@H](C)CC (stereo partly drawn) [brevibacillin] (X1-[X2]L[dOrn]IIV[dK]VVK[dY]L-Valol)	–	25.1 ± 0.1 mg/L	2.5- to fivefold	all of the HepG2 cells were killed	5.21 ± 0.01 µg/mL	–	–	–	completely lysed
CC=C(NC(=O)C(O)C(C)CC)C(=O)N[C@@H](CC(C)C)C(=O)N[C@H](CCCN)C(=O)N[C@H](C(=O)N[C@H](C(=O)N[C@H](C(=O)N[C@H](CCCCN)C(=O)N[C@H](C(=O)N[C@H](C(=O)N[C@@H](CCCCN)C(=O)N[C@H](Cc1ccc(O)cc1)C(=O)N[C@@H](CC(C)C)C(=O)N[C@H](CO)C(C)C)C(C)C)[C@@H](C)CC)C(C)C)[C@@H](C)CC)[C@@H](C)CC (stereo partly drawn) [brevibacillin I] (X1-[X2]L[dOrn]IIV[dK]IVK[dY]L-Valol)	–	–	2.5- to fivefold	all of the HepG2 cells were killed	7.38 ± 0.30 µg/mL	–	–	–	completely lysed
